This test concerns CD2F1 mice, L1210 leukemia ip, survival T/C. As to the kind of experiment: NCI In Vivo Anticancer Drug Screen. Data for tumor model L1210 Leukemia (intraperitoneal) in CD2F1 (CDF1) mice. The note with it: higher = longer survival. Put shortly: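 Compound-dosed mice with transplantable tumor versus matched vehicle controls; endpoint ratio T/C reported.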
Where [1] appears, read: endpoint: mean survival time, dose: 50.0 mg/kg/injection, schedule: Q01DX009 (ip), vehicle: saline.
[2] abbreviates: endpoint: mean survival time, dose: 100.0 mg/kg/injection, schedule: Q01DX009 (ip), vehicle: saline.
Where [3] appears, read: endpoint: mean survival time, dose: 200.0 mg/kg/injection, schedule: Q01DX009 (ip), vehicle: saline.
[4] abbreviates: endpoint: mean survival time, dose: 100.0 mg/kg/injection, schedule: Q04DX003 (ip), vehicle: saline with Tween-80.
Where [5] appears, read: endpoint: mean survival time, dose: 200.0 mg/kg/injection, schedule: Q04DX003 (ip), vehicle: saline with Tween-80.
Setting [6] is: endpoint: mean survival time, dose: 400.0 mg/kg/injection, schedule: Q01DX009 (ip), vehicle: saline.
The mark [7] stands for this setting: endpoint: mean survival time, dose: 12.5 mg/kg/injection, schedule: Q01DX009 (ip), vehicle: saline with Tween-80.
Where [8] appears, read: endpoint: mean survival time, dose: 25.0 mg/kg/injection, schedule: Q01DX009 (ip), vehicle: saline with Tween-80.
Where [9] appears, read: endpoint: mean survival time, dose: 50.0 mg/kg/injection, schedule: Q01DX009 (ip), vehicle: saline with Tween-80.
Where [10] appears, read: endpoint: mean survival time, dose: 100.0 mg/kg/injection, schedule: Q01DX009 (ip), vehicle: saline with Tween-80.
[11] abbreviates: endpoint: mean survival time, dose: 200.0 mg/kg/injection, schedule: Q01DX009 (ip), vehicle: saline with Tween-80.
Where [12] appears, read: endpoint: mean survival time, dose: 50.0 mg/kg/injection, schedule: Q04DX003 (ip), vehicle: saline with Tween-80.
Setting [13] is: endpoint: mean survival time, dose: 100.0 mg/kg/injection, schedule: Q04DX003 (ip), vehicle: saline.
The mark [14] stands for this setting: endpoint: mean survival time, dose: 200.0 mg/kg/injection, schedule: Q04DX003 (ip), vehicle: saline.
The mark [15] stands for this setting: endpoint: mean survival time, dose: 400.0 mg/kg/injection, schedule: Q04DX003 (ip), vehicle: saline.

Where “and” joins values, the source holds several entries; their conditions need not be identical. Equal values may be shown once. Toxic doses and inconclusive results are not listed.

Turning to `CC(C)(N)CO`, the T/C runs as follows: under setting [1], 88 % of control; under setting [2], 100 % of control; under setting [3], 100 % of control.

With `O=C(CSCC(=O)c1ccccc1)c1ccccc1`, the T/C (endpoint: mean survival time, dose: 400.0 mg/kg/injection, schedule: Q04DX002 (ip), vehicle: Klucel (hydroxypropylcellulose) (HPC)) was 89 % of control.

For the compound `CCOC(CCC#N)c1ccc(Cl)cc1` (stereo unspecified), the T/C runs as follows: under setting [2], 98 % of control; under setting [4], 92 % of control; under setting [3], 101 % of control; under setting [5], 100 % of control; under setting [6], 98 % of control; (endpoint: mean survival time, dose: 400.0 mg/kg/injection, schedule: Q04DX003 (ip), vehicle: saline with Tween-80) 102 % of control.

Turning to `BrC1c2cccc3cccc(c23)C1Br` (stereo unspecified), the T/C reads like this: (endpoint: mean survival time, dose: 6.25 mg/kg/injection, schedule: Q01DX009 (ip), vehicle: saline with Tween-80) 115 % of control; under setting [7], 108 % of control; under setting [8], 115 % of control and 106 % of control; under setting [9], 115 % of control and 105 % of control; under setting [10], 100 % of control and 112 % of control; under setting [11], 110 % of control.

`COc1ccc([N+]2=Cc3cc(OC)c(OC)cc3CC2)cc1OC`: the T/C (endpoint: mean survival time, dose: 12.5 mg/kg/injection, schedule: Q01DX009 (ip), vehicle: water) is 89 % of control; the T/C (endpoint: mean survival time, dose: 25.0 mg/kg/injection, schedule: Q01DX009 (ip), vehicle: water) is 94 % of control; the T/C (endpoint: mean survival time, dose: 50.0 mg/kg/injection, schedule: Q01DX009 (ip), vehicle: water) was 97 % of control; the T/C (endpoint: mean survival time, dose: 100.0 mg/kg/injection, schedule: Q01DX009 (ip), vehicle: water) was 91 % of control.

With `CC1CCCCN1C(=O)Nc1c(Cl)cccc1Cl` (stereo unspecified), the T/C reads like this: under setting [9], 98 % of control; under setting [10], 105 % of control; under setting [11], 94 % of control.

Consider `c1ccc(CCNCc2ccccc2)cc1`, for which the T/C was 94 % of control under setting [8]; 98 % of control under setting [9]; 104 % of control under setting [12]; 88 % of control under setting [10]; 97 % of control under setting [4].

As to `c1ccc(-c2ccccc2NC2=NCCO2)cc1`, the T/C is 94 % of control (endpoint: mean survival time, dose: 12.5 mg/kg/injection, schedule: Q04DX003 (ip), vehicle: saline); 94 % of control (endpoint: mean survival time, dose: 25.0 mg/kg/injection, schedule: Q04DX003 (ip), vehicle: saline); 90 % of control (endpoint: mean survival time, dose: 50.0 mg/kg/injection, schedule: Q04DX003 (ip), vehicle: saline).

For the compound `CN(CC[NH-])CC[NH-].[I][Pt]`, the T/C runs as follows: (endpoint: mean survival time, dose: 12.5 mg/kg/injection, schedule: Q04DX003 (ip), vehicle: saline with Tween-80) 100 % of control; (endpoint: mean survival time, dose: 25.0 mg/kg/injection, schedule: Q04DX003 (ip), vehicle: saline with Tween-80) 94 % of control; under setting [12], 98 % of control; under setting [4], 100 % of control; under setting [5], 94 % of control.

In the case of `CCCCn1cnc2c(=S)nc[nH]c21`, the T/C runs as follows: (endpoint: mean survival time, dose: 32.0 mg/kg/injection, schedule: Q01DX009 (ip), vehicle: saline) 118 % of control and 105 % of control; (endpoint: mean survival time, dose: 64.0 mg/kg/injection, schedule: Q01DX009 (ip), vehicle: saline) 112 % of control and 115 % of control; (endpoint: mean survival time, dose: 100.0 mg/kg/injection, schedule: Q01DX007 (ip), vehicle: saline) 113 % of control; (endpoint: mean survival time, dose: 100.0 mg/kg/injection, schedule: Q03DX003 (ip), vehicle: saline) 102 % of control; under setting [13], 97 % of control; (endpoint: mean survival time, dose: 128.0 mg/kg/injection, schedule: Q01DX009 (ip), vehicle: saline) 118 % of control. Moreover, the T/C reads like this: (endpoint: mean survival time, dose: 200.0 mg/kg/injection, schedule: Q01DX007 (ip), vehicle: saline) 162 % of control; under setting [3], 165 % of control; (endpoint: mean survival time, dose: 200.0 mg/kg/injection, schedule: Q03DX003 (ip), vehicle: saline) 122 % of control; under setting [14], 118 % of control; (endpoint: mean survival time, dose: 256.0 mg/kg/injection, schedule: Q01DX009 (ip), vehicle: saline) 153 % of control and 169 % of control; (endpoint: mean survival time, dose: 400.0 mg/kg/injection, schedule: Q01DX007 (ip), vehicle: saline) 115 % of control. Further, the T/C under setting [6] was 102 % of control; the T/C (endpoint: mean survival time, dose: 400.0 mg/kg/injection, schedule: Q03DX003 (ip), vehicle: saline) was 168 % of control; the T/C under setting [15] was 163 % of control; the T/C (endpoint: median survival time, dose: 25.0 mg/kg/injection, schedule: Q01DX009 (ip), vehicle: saline with Tween-80) was 124 % of control and 107 % of control; the T/C (endpoint: median survival time, dose: 50.0 mg/kg/injection, schedule: Q01DX009 (ip), vehicle: saline with Tween-80) was 122 % of control; the T/C (endpoint: median survival time, dose: 100.0 mg/kg/injection, schedule: Q01DX009 (ip), vehicle: saline with Tween-80) was 164 % of control. The T/C is 154 % of control and 164 % of control (endpoint: median survival time, dose: 200.0 mg/kg/injection, schedule: Q01DX009 (ip), vehicle: saline with Tween-80); 122 % of control (endpoint: median survival time, dose: 400.0 mg/kg/injection, schedule: Q01DX009 (ip), vehicle: saline with Tween-80).

On to `CC[N+](C)(CC)CCNC(=O)C(c1ccccc1)c1ccccc1`, for which the T/C is, setting by setting: (endpoint: mean survival time, dose: 25.0 mg/kg/injection, schedule: Q01DX009 (ip), vehicle: saline) 104 % of control; under setting [1], 102 % of control; under setting [2], 95 % of control.

As for `Cc1cccc(OCC(O)CN2CC2)c1` (stereo unspecified), the T/C was 97 % of control and 107 % of control (endpoint: median survival time, dose: 12.5 mg/kg/injection, schedule: Q01DX005 (ip), vehicle: saline with Tween-80); 115 % of control and 111 % of control (endpoint: median survival time, dose: 25.0 mg/kg/injection, schedule: Q01DX005 (ip), vehicle: saline with Tween-80); 104 % of control (endpoint: median survival time, dose: 36.0 mg/kg/injection, schedule: Q01DX005 (ip), vehicle: saline with Tween-80); 113 % of control and 108 % of control (endpoint: median survival time, dose: 50.0 mg/kg/injection, schedule: Q01DX005 (ip), vehicle: saline with Tween-80); 113 % of control (endpoint: median survival time, dose: 60.0 mg/kg/injection, schedule: Q01DX005 (ip), vehicle: saline with Tween-80); 106 % of control (endpoint: median survival time, dose: 100.0 mg/kg/injection, schedule: Q01DX005 (ip), vehicle: saline with Tween-80). For the same compound, the T/C (endpoint: median survival time, dose: 166.66 mg/kg/injection, schedule: Q01DX005 (ip), vehicle: saline with Tween-80) is 110 % of control.

Take `CCN(CC)CC[n+]1ccc2c(C)c3[nH]c4ccc(O)cc4c3c(C)c2c1`: the T/C is 179 % of control (endpoint: mean survival time, dose: 3.12 mg/kg/injection, schedule: Q01DX009 (ip), vehicle: suspension in saline); 228 % of control (endpoint: mean survival time, dose: 6.25 mg/kg/injection, schedule: Q01DX009 (ip), vehicle: suspension in saline); 170 % of control and 262 % of control (endpoint: mean survival time, dose: 12.5 mg/kg/injection, schedule: Q01DX009 (ip), vehicle: suspension in saline); 116 % of control and 111 % of control (endpoint: mean survival time, dose: 25.0 mg/kg/injection, schedule: Q01DX009 (ip), vehicle: suspension in saline); 102 % of control under setting [1]; 92 % of control (endpoint: mean survival time, dose: 50.0 mg/kg/injection, schedule: Q01DX009 (ip), vehicle: suspension in saline).

In the case of `CC(OC1OC(C(=O)O)C(O)C(O)C1O)c1ccccc1` (stereo unspecified), the T/C runs as follows: under setting [13], 98 % of control; under setting [14], 98 % of control; under setting [15], 93 % of control.

Turning to `O=[N+]([O-])c1ccc(O)c(Cl)c1`, the T/C was 86 % of control under setting [7]; 89 % of control under setting [8]; 106 % of control and 108 % of control under setting [9].

Turning to `COc1ccc2cc3[n+](cc2c1OC)CCc1cc2c(cc1-3)OCO2`, the T/C reads like this: (endpoint: mean survival time, dose: 5.0 mg/kg/injection, schedule: Q01DX009 (ip), vehicle: saline with Tween-80) 106 % of control; (endpoint: mean survival time, dose: 5.0 mg/kg/injection, schedule: Q04DX003 (ip), vehicle: saline with Tween-80) 98 % of control; (endpoint: mean survival time, dose: 10.0 mg/kg/injection, schedule: Q01DX009 (ip), vehicle: saline with Tween-80) 93 % of control; (endpoint: mean survival time, dose: 10.0 mg/kg/injection, schedule: Q04DX003 (ip), vehicle: saline with Tween-80) 96 % of control; (endpoint: mean survival time, dose: 20.0 mg/kg/injection, schedule: Q04DX003 (ip), vehicle: saline with Tween-80) 94 % of control.

In the case of `COc1ccc2c(c1)C1CCCC(=O)C1N2` (stereo unspecified), the T/C by setting is: under setting [10], 97 % of control; under setting [11], 91 % of control; (endpoint: mean survival time, dose: 400.0 mg/kg/injection, schedule: Q01DX009 (ip), vehicle: saline with Tween-80) 91 % of control.

For the origin of these results see PubChem BioAssay AID256 (DTP/NCI, 2004).
